Data on three compounds can be found in US20150080465A1 (priority 2013, published 2015).

The test system of data set [1] is patients with type 2 diabetes and overt nephropathy. Conditions: in vivo; cited from earlier work.
The conditions of data set [2]: monkeys, equivalent dosages orally in gelatin capsules; cited from earlier work.
For data set [3], the system named is monocrotaline (MCT)-induced pulmonary arterial hypertension. The note with it: rat, in vivo.

Each structure is given as a SMILES string.

Turning to `COc1ccccc1Oc1c(NS(=O)(=O)c2ccc(C)cn2)nc(-c2ccncc2)nc1OC` [Avosentan], in data set [1], the “Fluid overload-related adverse events, serious and non-serious” value is listed as “increased only within the first month of treatment”. Consider `COC(=O)C12CCC(C)(C)CC1C1C(=O)C=C3C4(C)C=C(C#N)C(=O)C(C)(C)C4CCC3(C)C1(C)CC2` (stereo not drawn) [Form B], for which the Bioavailability result in data set [2] was “higher than that of Form A”. As to `CCCc1nn(C)c2c(=O)[nH]c(-c3cc(S(=O)(=O)N4CCN(C)CC4)ccc3OCC)nc12` [sildenafil], the Pulmonary edema entry in data set [3] is reported as “completely abrogated”.
